Tests used:
[1] = test system: mouse mesenteric arteries; assay: Wire myography, mesenteric artery strips precontracted with high K+ (KPSS)
hTRPA1 [2] = biological target: T1, hTRPA1 (Homo sapiens, UniProt O75762); assay: TRP channel panel primary screen (FLIPR Calcium 5, stable HEK line); assay type: cell-based; conditions: 0.3-300μM; effects over the micromolar range
Experimental: (§1) ±PZQ, (R)-PZQ and (S)-PZQ were screened against a panel of 17 human TRP channels (SB Drug Discovery, Glasgow). For all hTRPs, except for TRPM5, individual channel constructs were stably expressed in HEK cell lines. TRMP5 was expressed in a stable CHO cell line. In preparation for the assays, cells were trypsinized, counted and seeded (50,000 cells/well) in black, clear-bottomed 96 well plates and incubated overnight. The following day, cells were loaded with a fluorescent indicator (FLIPR Calcium 5 Assay kit for TRPA1, TRPV1, TRPV2, TRPV3, TRPV4, TRPV5, TRPC1, TRPM2, TRPM3 and TRPM8, or a membrane potential dye (FLIPR Membrane Potential Red Assay Kit for TRPC3, TRPC4, TRPC5, TRPC6, TRPC7, TRPM4 and TRPM5) prepared according to the manufacturer’s instructions in HEPES buffered Hank’s balanced salt solution (HBSS). Dye solution (10μl) was added to appropriate wells and incubated at 37°C for 1 hour. All assays were performed at room temperature. Compounds were tested at 0.3, 1, 3, 10, 30, 100μM and 300μM in triplicate in both agonist and antagonist mode to determine EC50 and IC50 values, which were compared with reference compounds. Compounds were screened at a final DMSO concentration of 0.5%. Plates were screened using a Flexstation (Molecular Devices, FX01138), monitoring fluorescence values every ~1.52 seconds. For ‘agonist mode’ testing, 10μl of the appropriate test compound, or standard agonist, was added after 20 seconds and fluorescence monitored for 2 minutes at λex = 485nm, λem = 525nm for Ca^2+ imaging and λex = 530nm, λem = 565nm for membrane potential measurements. For ‘antagonist mode’ testing, test compounds and standard inhibitors were added to appropriate wells and incubated for 10 minutes at room temperature prior to addition of standard agonist compound.

hTRPM8 [3] = biological target: T2, hTRPM8 (Homo sapiens, UniProt Q7Z2W7); assay: as above; assay type: cell-based; conditions: 0.3-300μM; effects over the micromolar range
T2 sequence (Q7Z2W7 whole entry): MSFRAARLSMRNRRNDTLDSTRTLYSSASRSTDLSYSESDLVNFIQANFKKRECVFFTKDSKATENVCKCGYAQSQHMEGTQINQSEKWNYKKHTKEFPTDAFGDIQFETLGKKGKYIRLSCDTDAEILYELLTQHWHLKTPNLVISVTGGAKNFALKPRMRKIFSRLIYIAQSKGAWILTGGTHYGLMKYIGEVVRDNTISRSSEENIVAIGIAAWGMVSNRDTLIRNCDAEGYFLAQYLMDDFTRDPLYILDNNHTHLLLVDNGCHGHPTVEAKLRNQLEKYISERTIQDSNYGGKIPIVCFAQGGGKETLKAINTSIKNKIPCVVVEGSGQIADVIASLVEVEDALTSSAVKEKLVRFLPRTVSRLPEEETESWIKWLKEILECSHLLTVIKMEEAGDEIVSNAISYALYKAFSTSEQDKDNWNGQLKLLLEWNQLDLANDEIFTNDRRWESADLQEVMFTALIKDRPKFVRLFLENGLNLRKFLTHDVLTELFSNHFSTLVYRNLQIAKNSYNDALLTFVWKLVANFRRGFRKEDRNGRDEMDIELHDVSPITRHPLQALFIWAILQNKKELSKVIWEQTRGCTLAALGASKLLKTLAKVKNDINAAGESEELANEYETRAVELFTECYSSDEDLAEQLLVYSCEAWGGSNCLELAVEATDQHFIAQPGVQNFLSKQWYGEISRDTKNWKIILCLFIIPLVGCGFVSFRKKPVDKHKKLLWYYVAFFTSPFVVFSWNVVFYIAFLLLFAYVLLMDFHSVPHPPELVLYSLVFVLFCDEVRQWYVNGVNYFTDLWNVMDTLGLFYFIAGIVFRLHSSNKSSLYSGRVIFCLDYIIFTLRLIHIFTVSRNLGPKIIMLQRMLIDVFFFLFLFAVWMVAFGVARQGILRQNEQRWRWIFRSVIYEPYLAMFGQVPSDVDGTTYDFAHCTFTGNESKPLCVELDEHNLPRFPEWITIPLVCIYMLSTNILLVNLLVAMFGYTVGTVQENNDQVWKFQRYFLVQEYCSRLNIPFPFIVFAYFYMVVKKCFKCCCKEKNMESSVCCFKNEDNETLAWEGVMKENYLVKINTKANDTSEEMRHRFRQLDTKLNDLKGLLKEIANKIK
Experimental: as §1

hTRPA1 [4] = biological target: T1, hTRPA1; assay: Single cell confocal Ca2+ imaging (fluo-4) in transfected HEK293 cells; assay type: cell-based; parameters: host or cells: HEK293 (ATCC CRL-1573.3), transient; conditions: 100μM
Source text: (§2) Human TRPM8 cDNA was a VersaClone from R&D Systems (RDC0188). Plasmids encoding human TRPA1 and human TRPV1 cDNA were purchased from DNASU plasmid repository (HsCD00080227 and HsCD00081472, respectively). The TRP channel coding sequences were subcloned into pCS2+ to introduce a COOH-term myc tag using the InFusion HD method (Clontech), HindIII/XhoI restriction enzymes (NEB) and the following primers: TRPM8 F–TGGGGACGTCGGAGC-aagctt-[…]; TRPM8 R–AAATCGATGGGATGC-ctcgag-[…]; TRPA1 F-GGACGTCGGAGC-aagctt- atgaagcgcagcctgagg; TRPA1 R-TCGATGGGATGC-ctcgag-[…]; TRPV1 F–GGACGTCGGAGC-aagctt-[…]; TRPV1 R-TCGATGGGATGC-ctcgag-cttctccccggaagcgg (where upper case specifies vector-specific sequences, italics indicate restriction sites, and lower case indicates TRP channel specific sequences). Primers are listed in a 5’ to 3’ orientation.
(§3) HEK293 cells (ATCC CRL-1573.3) were cultured in DMEM supplemented with 10% fetal bovine serum (FBS), penicillin (100 units/ml), streptomycin (100 μg/ml), and L-glutamine (290 μg/ml). Cells were transiently transfected (Lipofectamine LTX, Thermo Fisher) at a density of 2x10^6 cells per T-25 cell-culture flask with TRP channel cDNA. For Ca^2+ imaging assays, HEK293 cells were seeded onto 8-chambered coverglass slides (Thermo Fisher, 115411PK), at a density of 1x10^4 cells one day prior to imaging. Cells were washed twice with HBSS, and incubated with fluo-4-AM (4μM), pluronic F127 (0.4%) and probenecid (2.5mM) for 25 minutes at room temperature. Cells were then washed twice with HBSS, and left at room temperature (30 minutes) for de-esterification. Dishes were mounted on an Olympus IX81 microscope and fluorescence changes (λex = 488nM, λem = 513±15nm bandpass filter) monitored using a Yogokawa spinning disk confocal (CSU-X-M1N) and an Andor iXon Ultra 888 EMCCD camera.

hTRPM8 [5] = biological target: T2, hTRPM8; assay: as above; assay type: cell-based; parameters: host or cells: HEK293 (ATCC CRL-1573.3), transient; conditions: for EC50: confocal imaging, Fig 4E, read-out: EC50, Ca2+ mobilization in TRPM8 expressing cells; for cytoplasmic Ca2+ signal in TRPM8 expressing cells: menthol 300μM, ±PZQ 100μM, (R)-PZQ or (S)-PZQ 50μM
Source text: as §2, §3

T1 sequence (O75762 whole entry): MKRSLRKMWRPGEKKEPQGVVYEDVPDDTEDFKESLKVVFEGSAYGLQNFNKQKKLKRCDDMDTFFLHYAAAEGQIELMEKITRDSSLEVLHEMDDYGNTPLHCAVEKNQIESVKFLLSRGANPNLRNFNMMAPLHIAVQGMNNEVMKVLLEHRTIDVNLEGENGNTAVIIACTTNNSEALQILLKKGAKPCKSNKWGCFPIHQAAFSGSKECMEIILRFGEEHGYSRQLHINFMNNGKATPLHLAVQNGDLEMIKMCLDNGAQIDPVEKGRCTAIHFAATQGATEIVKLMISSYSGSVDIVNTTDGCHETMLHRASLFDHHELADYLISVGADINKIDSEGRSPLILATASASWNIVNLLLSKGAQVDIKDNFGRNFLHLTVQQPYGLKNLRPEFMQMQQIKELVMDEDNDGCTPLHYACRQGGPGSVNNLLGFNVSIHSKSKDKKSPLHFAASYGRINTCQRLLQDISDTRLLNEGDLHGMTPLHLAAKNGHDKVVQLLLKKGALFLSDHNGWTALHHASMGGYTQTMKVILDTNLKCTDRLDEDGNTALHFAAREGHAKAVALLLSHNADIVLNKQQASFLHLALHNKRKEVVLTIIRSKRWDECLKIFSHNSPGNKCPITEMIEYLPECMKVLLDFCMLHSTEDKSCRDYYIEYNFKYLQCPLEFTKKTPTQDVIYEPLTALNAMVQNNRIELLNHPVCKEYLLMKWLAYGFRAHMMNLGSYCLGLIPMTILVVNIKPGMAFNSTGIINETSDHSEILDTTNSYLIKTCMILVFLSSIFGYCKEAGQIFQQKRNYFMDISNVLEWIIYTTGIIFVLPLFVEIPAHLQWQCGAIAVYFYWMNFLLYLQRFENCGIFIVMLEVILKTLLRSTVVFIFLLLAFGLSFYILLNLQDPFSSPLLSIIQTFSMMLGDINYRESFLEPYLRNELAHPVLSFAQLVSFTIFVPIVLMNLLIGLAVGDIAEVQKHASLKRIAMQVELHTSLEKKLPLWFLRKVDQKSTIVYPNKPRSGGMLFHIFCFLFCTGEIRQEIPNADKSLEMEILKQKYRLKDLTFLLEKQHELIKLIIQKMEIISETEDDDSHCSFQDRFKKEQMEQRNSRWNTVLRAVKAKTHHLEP

Row | activity at hTRPA1 in primary screen (hTRPA1 [2]) | activity at hTRPM8 in primary screen (hTRPM8 [3]) | Ca2+ response in hTRPA1 expressing cells (hTRPA1 [4]) | EC50 (hTRPM8 [5]) [µM] | cytoplasmic Ca2+ signal in TRPM8 expressing cells (hTRPM8 [5]) | SMILES | change in tension of KPSS-precontracted vessels ([1]; 50μM, bath application during KPSS-evoked contraction) | extent of relaxation ([1]; WT tissue, 50μM) | relaxation of the KPSS-contracted vessel ([1]; 100μM, peak relaxation) [%]
1 | activated | sole active enantiomer | activation of hTRPA1 | 19.2 ± 5.3 | evoked cytoplasmic Ca^2+ signals | O=C(C1CCCCC1)N1CC(=O)N2CCc3ccccc3[C@H]2C1 [(S)-PZQ] | decrease in tension | ~ 30 % of peak KPSS-evoked tone | –
2 | displayed activity | displayed activity | elicited Ca^2+ responses | 19 ± 5 | evoked cytoplasmic Ca^2+ signals | O=C(C1CCCCC1)N1CC(=O)N2CCc3ccccc3C2C1 (racemic) [±PZQ, praziquantel] | – | – | 61±9
